Patent US4211764A, “Gastric secretion stimulation with 2-amino-5-(2-aminoethyl)-1,3,4-thiadiozole” (priority 1978, dated 1980)

Assays:
male dogs = assay: Chronic toxicity, dogs per os; assay type: in vivo; conditions: for Bilirubin content / Glutamic-alanine transaminase content: 200 mg per os daily, Test
Experimental: Three male dogs weighing 22 to 25 kg
1. Administration per os, 200 mg
(in gelatin capsules), admini-
stration performed once a day
during 10 days, one animal being

H2 -receptors = biological target: T1, H2 -receptors (Cavia porcellus, UniProt P47747); assay: Heart rate of isolated auricles; conditions: isolated guinea pig auricles; read-out: pD2 value, H2 -receptors (heart rate) (converted)
T1 construct: from tissue; host or cells: isolated guinea pig auricles (atria)
T1 sequence (P47747 whole entry): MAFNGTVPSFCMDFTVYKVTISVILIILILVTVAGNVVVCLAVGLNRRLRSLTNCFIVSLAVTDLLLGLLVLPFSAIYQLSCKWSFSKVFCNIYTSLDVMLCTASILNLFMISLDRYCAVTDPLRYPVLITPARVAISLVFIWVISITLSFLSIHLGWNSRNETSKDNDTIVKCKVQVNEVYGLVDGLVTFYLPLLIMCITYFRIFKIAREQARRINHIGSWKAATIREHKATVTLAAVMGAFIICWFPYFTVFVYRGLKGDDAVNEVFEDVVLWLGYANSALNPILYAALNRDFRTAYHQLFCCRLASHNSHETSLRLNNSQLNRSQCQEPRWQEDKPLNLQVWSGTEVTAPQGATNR
Experimental: (§1) Changes in the heart rate were measured, dose-response curves were plotted, and pD2 values were calculated.

Acute toxicity, rats = conditions: rat, in vivo, ip; male rats, 200-250 g, i/p
Source text: The results of the tests are generalized in Table 1.

H2 -ceptors = H2 -ceptors (Canis lupus familiaris, UniProt P17124); assay: Gastric secretion in dogs with gastric fistula, intramuscular injection
Sequence of H2 -ceptors (P17124 whole entry): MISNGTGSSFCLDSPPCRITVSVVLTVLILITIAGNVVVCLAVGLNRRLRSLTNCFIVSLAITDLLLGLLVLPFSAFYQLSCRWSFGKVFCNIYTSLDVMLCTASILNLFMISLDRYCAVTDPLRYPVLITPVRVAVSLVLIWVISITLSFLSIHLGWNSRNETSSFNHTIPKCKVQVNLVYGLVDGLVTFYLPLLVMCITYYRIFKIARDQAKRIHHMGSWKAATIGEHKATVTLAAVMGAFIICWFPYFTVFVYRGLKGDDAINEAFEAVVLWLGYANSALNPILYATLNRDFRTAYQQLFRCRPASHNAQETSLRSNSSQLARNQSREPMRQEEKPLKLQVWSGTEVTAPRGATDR
Experimental: Chronic experiments were performed on male dogs weighing 20 to 25 kg and having a gastric fistula; prior to experiments, the animals were starved for 18 hours.
The gastric juice was analyzed for titratable acidity and proteolytic activity. The hydrochloric acid output was calculated in milliequivalents (mEq) and that of pepsin in milligrams.

H1 - and H2 -receptors = assay: Comparison of effects upon H1 - and H2 -receptors of different objects
Experimental: as §1

In the case of NCCc1nnc(N)s1 [Thidazine, 2-amino-5-(2-aminoethyl)-1,3,4-thiadiazole], the “Behavior, food reflexes” value (male dogs; 200 mg per os daily 10 days) is reported as “No changes”, the Bilirubin content (male dogs; 5th day) is reported as 0.15 mg% and the Glutamic-alanine transaminase content (male dogs; 5th day) is reported as 30 units. It also gave a Bilirubin content (male dogs; 10th day) of 0.15 mg%, a Glutamic-alanine transaminase content (male dogs; 10th day) of 32 units and a Bilirubin content (male dogs; at beginning) of 0.16 mg%. For the same compound, the Glutamic-alanine transaminase content (male dogs; beginning) was 30 units, the “Histological Examination of Internal Organs” value (male dogs; dog, in vivo) was “No microscopic changes” and the “Urinalysis: volume, specific weight, protein, microscopy of urinary sediment” value (male dogs; dog, in vivo) was “No significant changes”. The EC50 (H2 -receptors) was 7.94 µM, the LD50 (Acute toxicity, rats) was 1 mg/kg and the “production of maximum level of hydrochloric acid secretion in the stomach” value (H2 -ceptors; animal (dog)) was “can produce a maximum level of hydrochloric acid secretion in the stomach of a dog”. The “effect upon arterial pressure, heart rate and general behavior” value (H2 -ceptors; dog, 3 mg/kg (maximum secretion dose)) was “no significant effect”, the maximum dose (H2 -ceptors; dogs, intramuscular) was 3.0 mg/kg and the “maximum hourly output of hydrochloric acid” value (H2 -ceptors; dogs, intramuscular) was 24 mEq per hour. For the same compound, the “maximum hourly output of pepsin” value (H2 -ceptors; dogs, intramuscular) was 110 mg per hour, the minimum active dose (H2 -ceptors; dogs, intramuscular) was 0.05 mg/kg and the “action upon H2 -receptors compared with H1 -receptors” value (H1 - and H2 -receptors) was “the action of thidazine upon H2 -receptors is stronger than its action upon H1 -receptors”.
